Results from US6525001B1, “Substituted pyrimidine and pyridine herbicides” (Mid-American Commercialization Corporation, priority 1997, dated 2003).

How the values were obtained:
Type in all cases: in vivo
Set-up in all cases: key: 0 is no effect; 10 is complete control
[1] = system: bedstraw (Galium aparine); assay: Test B pre-/postemergence; conditions: for Bedstraw plant response rating: Preemergence
How it was run: (§1)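 Compounds in a surfactant-containing, non-phytotoxic solvent blend are applied to freshly planted seed (preemergence) and, concurrently, to seedlings of 2 to 18 cm at 1–4 leaves (postemergence). Plants stay in the greenhouse twelve to sixteen days and are then scored visually from 0 (no effect) to 10 (complete control).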

[2] = system: blackgrass (Alopecurus myosuroides); assay: Test B pre-/postemergence; conditions: for Blackgrass plant response rating: Preemergence
How it was run: as §1

[3] = system: broadleaf signalgrass (Brachiaria decumbens); assay: Test B pre-/postemergence; conditions: for B. signalgrass plant response rating: Preemergence
How it was run: as §1

[4] = system: cocklebur (Xanthium strumarium); assay: Test B pre-/postemergence; conditions: for Plant response rating, Cocklebur: Postemergence; for Cocklebur plant response rating: Preemergence
How it was run: as §1

corn (Zea mays) = assay: Test B pre-/postemergence; conditions: for Corn plant response rating: Preemergence
How it was run: as §1

[5] = system: crabgrass (Digitaria sanguinalis); assay: Test B pre-/postemergence; conditions: for Crabgrass plant response rating: Preemergence
How it was run: as §1

[6] = system: giant foxtail (Setaria faberii); assay: Test B pre-/postemergence
How it was run: as §1

[7] = system: momingglory (Ipomoea hederacea); assay: Test B pre-/postemergence
How it was run: as §1

[8] = system: pigweed (Amaranthus retroflexus); assay: Test B pre-/postemergence
How it was run: as §1

[9] = system: purple nutsedge (Cyperus rotundus); assay: Test B pre-/postemergence
How it was run: as §1

rape (Brassica napus) = assay: Test B pre-/postemergence
How it was run: as §1

soybean (Glycine max) = assay: Test B pre-/postemergence
How it was run: as §1

[10] = system: sugar beet (Beta vulgaris); assay: Test B pre-/postemergence
How it was run: as §1

[11] = system: velvetleaf (Abutilon theophrasti); assay: Test B pre-/postemergence
How it was run: as §1

[12] = system: wheat (Triticum aestivum); assay: Test B pre-/postemergence
How it was run: as §1

wild oat (Avena fatua) = assay: Test B pre-/postemergence
How it was run: as §1

[13] = system: bamyardgrass (Echinochloa crus-galli); assay: Test B flood test
How it was run: (§2)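 Read-out is a visual response score from 0 (no effect) to 10 (complete control), assigned by comparison with untreated controls. Treatment was applied at the 2-leaf stage, and plants stayed in the greenhouse for twelve to sixteen days before scoring.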

[14] = system: duck salad (Heteranthera limosa); assay: Test B flood test
How it was run: as §2

rice (Oryza sativa) = assay: Test B flood test
How it was run: as §2

[15] = system: smallflower flatsedge (Cyperus difformis); assay: Test B flood test
How it was run: as §2

[16] = Rate 250 g/ha, Postemergence (so in the source)
[17] = Rate 62 g/ha, Postemergence (flood test)
[18] = Rate 125 g/ha, Postemergence, flood test
[19] = Rate 250 g/ha, Postemergence (flood test species)
[20] = Rate 125 g/ha, Postemergence section (flood test species)

Cc1cnc(-c2ccc(Cl)c(Cl)c2)nc1Cc1cccc(C#N)c1 [Compound 38]
Plant response rating, Bedstraw ([1]; Rate 62 g/ha, Postemergence): 7
Bedstraw plant response rating ([1]; Rate 62 g/ha): 0
Plant response rating, Bedstraw ([1]; Rate 125 g/ha, Postemergence): 7
Bedstraw plant response rating ([1]; Rate 125 g/ha): 1
Plant response rating, Bedstraw [1, 16]: 2
Plant response rating, Blackgrass ([2]; Rate 62 g/ha, Postemergence): 0
Blackgrass plant response rating ([2]; Rate 62 g/ha): 0
Plant response rating, Blackgrass ([2]; Rate 125 g/ha, Postemergence): 0
Blackgrass plant response rating ([2]; Rate 125 g/ha): 0
Plant response rating, Blackgrass ([2]; Rate 250 g/ha, Postemergence): 0
Plant response rating, Blackgrass [2, 16]: 0
Plant response rating, B. signalgrass ([3]; Rate 62 g/ha, Postemergence): 1
B. signalgrass plant response rating ([3]; Rate 62 g/ha): 0
Plant response rating, B. signalgrass ([3]; Rate 125 g/ha, Postemergence): 1
B. signalgrass plant response rating ([3]; Rate 125 g/ha): 0
Plant response rating, B. signalgrass ([3]; Rate 250 g/ha, Postemergence): 1
Plant response rating, B. signalgrass ([3]; Rate 250 g/ha, Postemergence as printed in head r139 (second section for compounds 26-50)): 1
Plant response rating, Cocklebur ([4]; Rate 62 g/ha): 4
Cocklebur plant response rating ([4]; Rate 62 g/ha): 0
Plant response rating, Cocklebur ([4]; Rate 125 g/ha): 7
Cocklebur plant response rating ([4]; Rate 125 g/ha): 0
Plant response rating, Cocklebur ([4]; Rate 250 g/ha): 8
Plant response rating, Corn (corn (Zea mays); Rate 62 g/ha, Postemergence): 1
Corn plant response rating (corn (Zea mays); Rate 62 g/ha): 0
Plant response rating, Corn (corn (Zea mays); Rate 125 g/ha, Postemergence): 1
Corn plant response rating (corn (Zea mays); Rate 125 g/ha): 0
Plant response rating, Corn (corn (Zea mays); Rate 250 g/ha, Postemergence): 1
Plant response rating, Corn (corn (Zea mays); [16]): 0
Plant response rating, Crabgrass ([5]; Rate 62 g/ha, Postemergence): 0
Crabgrass plant response rating ([5]; Rate 62 g/ha): 0
Plant response rating, Crabgrass ([5]; Rate 125 g/ha, Postemergence): 0
Crabgrass plant response rating ([5]; Rate 125 g/ha): 0
Plant response rating, Crabgrass ([5]; Rate 250 g/ha, Postemergence): 1
Plant response rating, Crabgrass [5, 16]: 0
Plant response rating, Giant foxtail ([6]; Rate 62 g/ha, Postemergence): 0
Giant foxtail plant response rating ([6]; Rate 62 g/ha, Preemergence): 0
Giant foxtail plant response rating ([6]; Rate 125 g/ha, Postemergence): 1
Giant foxtail plant response rating ([6]; Rate 125 g/ha, Preemergence): 1
Plant response rating, Giant foxtail ([6]; Rate 250 g/ha, Postemergence): 0
Plant response rating, Giant foxtail [6, 16]: 1
Plant response rating, Morningglory ([7]; Rate 62 g/ha, Postemergence): 1
Morningglory plant response rating ([7]; Rate 62 g/ha, Preemergence): 0
Morningglory plant response rating ([7]; Rate 125 g/ha, Postemergence): 1
Morningglory plant response rating ([7]; Rate 125 g/ha, Preemergence): 0
Plant response rating, Morningglory ([7]; Rate 250 g/ha, Postemergence): 1
Plant response rating, Morningglory [7, 16]: 0
Plant response rating, Redroot pigweed ([8]; Rate 62 g/ha, Postemergence): 2
Redroot pigweed plant response rating ([8]; Rate 62 g/ha, Preemergence): 0
Redroot pigweed plant response rating ([8]; Rate 125 g/ha, Postemergence): 4
Redroot pigweed plant response rating ([8]; Rate 125 g/ha, Preemergence): 0
Plant response rating, Redroot pigweed ([8]; Rate 250 g/ha, Postemergence): 5
Plant response rating, Redroot pigweed [8, 16]: 0
Plant response rating, Nutsedge ([9]; Rate 62 g/ha, Postemergence): 0
Nutsedge plant response rating ([9]; Rate 62 g/ha, Preemergence): 0
Nutsedge plant response rating ([9]; Rate 125 g/ha, Postemergence): 0
Nutsedge plant response rating ([9]; Rate 125 g/ha, Preemergence): 0
Plant response rating, Nutsedge ([9]; Rate 250 g/ha, Postemergence): 0
Plant response rating, Nutsedge [9, 16]: 0
Plant response rating, Rape (rape (Brassica napus); Rate 62 g/ha, Postemergence): 3
Rape plant response rating (rape (Brassica napus); Rate 62 g/ha, Preemergence): 0
Rape plant response rating (rape (Brassica napus); Rate 125 g/ha, Postemergence): 3
Rape plant response rating (rape (Brassica napus); Rate 125 g/ha, Preemergence): 0
Plant response rating, Rape (rape (Brassica napus); Rate 250 g/ha, Postemergence): 6
Plant response rating, Rape (rape (Brassica napus); [16]): 0
Plant response rating, Soybean (soybean (Glycine max); Rate 62 g/ha, Postemergence): 1
Soybean plant response rating (soybean (Glycine max); Rate 62 g/ha, Preemergence): 0
Soybean plant response rating (soybean (Glycine max); Rate 125 g/ha, Postemergence): 1
Plant response rating, Soybean (soybean (Glycine max); Rate 125 g/ha, Preemergence): 0
Plant response rating, Soybean (soybean (Glycine max); Rate 250 g/ha, Postemergence): 1
Plant response rating, Soybean (soybean (Glycine max); [16]): 0
Plant response rating, Sugarbeets ([10]; Rate 62 g/ha, Postemergence): 9
Sugarbeets plant response rating ([10]; Rate 62 g/ha, Preemergence): 0
Sugarbeets plant response rating ([10]; Rate 125 g/ha, Postemergence): 9
Plant response rating, Sugarbeets ([10]; Rate 125 g/ha, Preemergence): 0
Plant response rating, Sugarbeets ([10]; Rate 250 g/ha, Postemergence): 9
Plant response rating, Sugarbeets [10, 16]: 0
Plant response rating, Velvetleaf ([11]; Rate 62 g/ha, Postemergence): 1
Velvetleaf plant response rating ([11]; Rate 62 g/ha, Preemergence): 0
Velvetleaf plant response rating ([11]; Rate 125 g/ha, Postemergence): 1
Plant response rating, Velvetleaf ([11]; Rate 125 g/ha, Preemergence): 0
Plant response rating, Velvetleaf ([11]; Rate 250 g/ha, Postemergence): 2
Plant response rating, Velvetleaf [11, 16]: 0
Wheat plant response rating ([12]; Rate 62 g/ha, Postemergence): 1
Wheat plant response rating ([12]; Rate 62 g/ha, Preemergence): 0
Wheat plant response rating ([12]; Rate 125 g/ha, Postemergence): 1
Plant response rating, Wheat ([12]; Rate 125 g/ha, Preemergence): 0
Plant response rating, Wheat ([12]; Rate 250 g/ha, Postemergence): 1
Plant response rating, Wheat [12, 16]: 0
Wild oats plant response rating (wild oat (Avena fatua); Rate 62 g/ha, Postemergence): 1
Wild oats plant response rating (wild oat (Avena fatua); Rate 62 g/ha, Preemergence): 0
Wild oats plant response rating (wild oat (Avena fatua); Rate 125 g/ha, Postemergence): 1
Plant response rating, Wild oats (wild oat (Avena fatua); Rate 125 g/ha, Preemergence): 0
Plant response rating, Wild oats (wild oat (Avena fatua); Rate 250 g/ha, Postemergence): 1
Plant response rating, Wild oats (wild oat (Avena fatua); [16]): 0
Plant response rating, Barnyardgrass [13, 17]: 0
Plant response rating, Barnyardgrass [13, 18]: 0
Plant response rating, Barnyardgrass [13, 19]: 0
Plant response rating, Ducksalad [14, 17]: 0
Plant response rating, Ducksalad [14, 18]: 0
Plant response rating, Ducksalad [14, 19]: 0
Plant response rating, Rice (rice (Oryza sativa); [17]): 0
Rice plant response rating (rice (Oryza sativa); [20]): 0
Plant response rating, Rice (rice (Oryza sativa); [19]): 0
Plant response rating, S. Flatsedge [15, 17]: 0
S. Flatsedge plant response rating [15, 20]: 3
Plant response rating, S. Flatsedge [15, 19]: 4
